Values quoted from earlier work, collected in US12367980B2, “Methods for predicting treatment response in cancers” (Cancer Research Technology Limited, priority 2020, dated 2025).
Read-outs that look alike come from different tables or passages of the source.

Test system: ovarian cancer patients
Conditions: for response rate to Doxorubicin monotherapy: expected rate from clinical trials

Q: Which results are given for COc1cccc2c1C(=O)c1c(O)c3c(c(O)c1C2=O)C[C@@](O)(C(=O)CO)C[C@@H]3O[C@H]1C[C@H](N)[C@H](O)[C@H](C)O1 [Doxorubicin, doxorubicin]?
A: response rate to Doxorubicin monotherapy (patients resistant to platinum chemotherapy): 18%; response rate to doxorubicin (platinum resistant ovarian cancer patients): 18%; response rate to doxorubicin (platinum sensitive ovarian cancer patients): 52%; response rate to Doxorubicin monotherapy (platinum sensitive patients (Gordon et al., 2001)): 28%
